Test results taken from patent publication US20130266535A1, “METHYL SALICYLATE-BASED ATTRACTANTS FOR VECTORS OF CITRUS GREENING DISEASE” (priority 2012, published 2013).

System: Diaphorina citri
Experiment: Two-port T-olfactometer behavioral bioassay with synthetic chemicals vs. clean air (solvent-only wick)
Format: in vivo
Details: for Proportion of D. citri responding to treatment arm: non-infected female adults, treatment vs solvent control arm
Excerpt: A custom designed two-port divided T-olfactometer [Analytical Research Systems (ARS), Inc. Gainesville, Fla.] that has been thoroughly described in [98] was used to evaluate behavioral response of D. citri. Briefly, the olfactometer consisted of a 30 cm long glass tube with 3.5 cm internal diameter that is bifurcated into two equal halves with a Teflon strip forming a T-maze. Each half served as an arm of the olfactometer enabling the D. citri to make a choice between two potential odor fields. The olfactometer arms were connected to odor sources placed in 35 cm tall×15 cm wide dome shaped guillotine volatile collection chambers (GVCC) (ARS, Gainesville, Fla.) through Teflon-glass tube connectors. The odor sources comprised 14-16 week old Las-infected or non-infected C. sinensis plants placed in GVCC. Purified and humidified air was pushed through the GVCC via two pumps connected to an air delivery system (ARS, Gainesville, Fla.). A constant airflow of 0.1 L/min was maintained through both arms of the olfactometer. The olfactometer was housed within a temperature-controlled room and positioned vertically under a fluorescent 900-lux light bulb within a fiberboard box for uniform light diffusion. This positioning took advantage of the negative geotactic and positive phototactic response of D. citri.
D. citri adults were released individually into the inlet adapter at the base of the olfactometer. An odor source was randomly assigned to one of the arms of the olfactometer at the beginning of each bioassay and was reversed after every 30 insects to eliminate positional bias. Initially, D. citri adults were exposed to clean air vs. clean air in the olfactometer to verify the absence of positional bias. Thereafter, the behavioral response of non-infected or Las-infected D. citri was tested against non-infected versus Las-infected plants. D. citri adults were also exposed to non-infected grafted (sham grafted) vs. non-grafted-non-infected plants to determine the effects of grafting only on D. citri behavior. For each treatment, C. sinensis plants were grafted with C. aurantifolia budwood four months prior to initiating behavioral experiments. A minimum of 150 male or female D. citri adults were examined per treatment combination (five replications of 30 D. citri). Each D. citri that responded to odors was individually subjected to qPCR to determine Las infection status using the procedures described above.
MeSA was released in greater quantities from Las-infected plants than non-infected plants, while MeAN and D-limonene were released in greater quantities by non-infected than infected plants (See results). Therefore, the behavioral response of D. citri to these synthetic chemicals was tested. A known D. citri attractant, β-ocimene, was used as a positive control. All chemicals were obtained from Sigma Aldrich (St Louis, Mo.) with purities ranging between 97 and 99%. Purity of β-ocimene was 90% and contained a mixture of isomers comprising 20-25% limonene. Each treatment was dissolved in 100 μl of dichloromethane and pipetted onto a 2 cm Richmond cotton wick (Petty John Packaging, Inc. Concord, N.C.) at 0.001, 0.01, 0.1, 1.0, 10.0 and 100.0 μg dosages. The control treatment consisted of a cotton wick impregnated with solvent only. The solvent from both treatments was allowed to evaporate within a fume hood for 30 min prior to assays. The bioassay procedures with synthetic chemicals were identical to those described earlier for plant samples. However, in this case, treatments (odor sources) were placed into solid phase micro extraction chambers (SPMEC) (ARS, Gainesville, Fla.) instead of the GVCC described above. The SPMEC consists of a straight glass tube (17.5 cm long×2.5 cm internal diameter) supported with an inlet and outlet valve for incoming and outgoing air streams, respectively. […]

SMILES | Behavioral response of D. citri (attraction/repulsion) (100 μg dosage) | Proportion of D. citri responding to treatment arm (dosage 0.001 μg on cotton wick) | Proportion of D. citri responding to treatment arm (dosage 0.01 μg on cotton wick) | Proportion of D. citri responding to treatment arm (dosage 0.1 μg on cotton wick) | Proportion of D. citri responding to treatment arm (dosage 1.0 μg on cotton wick) | Proportion of D. citri responding to treatment arm (dosage 10.0 μg on cotton wick) | Proportion of D. citri responding to treatment arm (dosage 100.0 μg on cotton wick) | Behavioral response of D. citri (attraction/repulsion) (1-100 μg dosages) | Behavioral response of D. citri (attraction/repulsion) (0.001 μg dosage) | Behavioral response of D. citri (attraction/repulsion) (any of the dosages tested (0.001-100 μg))
C=C(C)[C@H]1CC=C(C)CC1 [D-limonene] | attracted | 56.06 | 60.87 | 54.39 | 54.65 | 60.24 | 61.54 | – | – | –
C=CC(C)=CCC=C(C)C [β-ocimene, reference compound] | – | 52.22 | 54.46 | 53.19 | 60.44 | 61.46 | 62.77 | attractive | – | –
COC(=O)c1ccccc1O [Methyl salicylate, methyl salicylate] | repelled | 54.00 | 60.44 | 54.76 | 45.12 | 41.03 | 39.56 | – | attracted | –
COC(=O)c1ccccc1N [Methyl anthranilate, methyl anthranilate] | – | 58.06 | 57.14 | 61.76 | 57.33 | 56.10 | 52.27 | – | – | did not attract or repel
